Laboratory results reported in publication PMC6600393, “Synthesis and Cytostatic Effect of 3’-deoxy-3’-C-Sulfanylmethyl Nucleoside Derivatives with D-xylo Configuration” (Molecules, 2019).

Columns and labels:
[1] = test system: SCC; set-up: method as in PMID 20947470; details: positive control; ref [36]; cited from earlier work
[2] = test system: SCC-VII (mouse squamous carcinoma) cell line; test: MTT cell viability assay on SCC-VII cells; format: cell-based
Protocol: (§1) For the investigation of the cytotoxic effect of nucleoside analogues we used healthy human keratinocyte (HaCaT) and tumorous squamous carcinoma SCC-VII cell lines. In the experiments, a standard citotoxicity assay, the MTT assay, was used in a 96-well plate. Importantly, different cell numbers were used in the case of the two different cell lines. The HaCaT cells were seeded 10^4/well concentration while the SCC-VII cells were seeded 5000/well concentration on the plate. In both cases the cells were treated with the nucleoside analogues at ~50% confluence.
SCC-VII is a carcinoma tumor that originally arose in the abdominal wall of C3H mice in Dr. Herman Suit’s laboratory at Harvard University, Boston, Massachusetts. SCC VII cells were grown in Dulbecco’s Modified Eagle’s Medium Nutrient Mixture (DMEM-HAM’S F12) (Sigma-Aldrich) supplemented with 2 mM L-glutamine, 23 mM NaHCO3, 100 U/mL penicillin, 100 U/mL streptomycin 1% non-essential amino acids and 10% fetal bovine serum.
(§2) Cell cultures had been kept under the same conditions during the experiments. Cells were stored at 37 °C, 95% humidity, and 5% CO2 in an incubator. During the MTT-assay, different starter cell number was used because of the cell cycle differences; HaCaT was started with 10.000/well meanwhile SCC VII with 5000/well. After passage, 24 h was assured for the cells to the adhesion. Then incubated with the compounds for 48 h. The experiments were performed in 96 well plates.
(§3) For the dilution of different concentrations of nucleoside analogues were prepared with DMSO 1% (v/v) and DMEM / DMEM-F12/Ham’s F12 cell culture medium.
(§4) After three days of incubation in the cell culture flask, cells were trypsinised into single cell suspensions. Aliquots (200 μL) of each cell suspension were placed in wells of 96-well-plates (Biocenter, Szeged, Hungary). Preliminary tests were conducted with cell numbers 5000 (SCC-VII) and 10,000 (HaCaT) per well. We have been tested five concentrations of each nucleoside analogues (20-10-5-2.5-1.25 µg/mL). The nucleoside analogues were dissolved in DMSO (1 v/v%) and DMEM/ DMEM-F12/Ham’s F12 were added to the wells to produce the required concentrations and the cells were similarly incubated for a further 48 h.
(§5) MTT (Sigma Aldrich, Budapest, Hungary) solution (0.5 mg/mL in PBS) 100 µL was added to each well. The plates were incubated for 1–2 h at 37 ^◦C, the wells aspirated, and MTT formazan extracted with 100 µL of DMSO aided by gentle agitation on a shaker. After 10 min at room temperature, the absorbances were read at 570 nm by an automatic plate reader (WALLAC Victor 2 1420 spectrophotometer), the instrument having been blanked beforehand on a row to which cells had not been added. Percentage viability (respiratory competence) of the population of cells in each well was expressed as: (Absorbance of treated cells/Absorbance of control cells) × 100. IC50 values of the nucleoside analogues were determined by Graphpad.

[3] = test system: HaCaT cells; test: Time-lapse video-microscopy: mother cell size, HaCaT; format: cell-based, human
Protocol: Dynamic functional and morphological effects of compound 10 was investigated via time-lapse (1 frame/min) videomicroscopy under standard cell-breeding conditions. Low intensity, near-infrared (NIR) 940 nm illumination was used, for reduced phototoxicity. Parallel experiments were done in the same CO2 incubator, using two custom-built inverted microscope equipped with sensitive charge-coupled device (CCD) sensors. […] Image sequences were processed and quantitatively analyzed using NIH ImageJ open-source software-bundle. Cell size, cellular generation time, and cell growth of HaCaT and SCC cells were analyzed. Time-lapse video-microscopy record about the effect of 10 and DMSO control on HaCaT and SCC cell lines are available in Supplementary Materials. […]
Mother cells size measurement: • Opening the image sequence in 8-bit format. • Stack Deflicker: The Stack Deflicker calculates the average grey value for each frame and normalizes all frames so that they have the same average grey level as a specified frame of the stack. […] If a region of the stack is selected the average frame intensity will be calculated from this region. • Changing the brightness/contrast, if it is neccesary. • Subtrack background: Removes smooth continuous backgrounds from gels and other images. […]

[4] = test system: SCC cells; test: DAPI fluorescent microscopy of nucleus morphology, SCC; format: cell-based, mouse; details: 17.0 µM, 48 h, vs DMSO control
Protocol: (§6) In our experiments 4’,6-diamidino-2-phenylindole (DAPI) fluorescent DNA dye has been used for studying the cell nucleus morphology as an indicator of genotoxicity. The HaCaT and SCC cells were treated with DMSO and compound 10, fixed and stained with DAPI, then examined with fluorescent microscopy (Figure 7 and Figure 8).
(§7) For fluorescence staining, cells were breeded in the ibidi microscope slide chamber. The sample preparation process was similar to that of TLS studies, except that after 48 h the samples were fixed with PFA and washed with PBS and left to dry at room temperature overnight. DAPI dye was used for fluorescencnt labbelling of A-T rich regions of DNA.
(§8) Dehydrated slides containing fixated cells were mounted in 35 μL DAPI-Antifade Medium under 24 × […] coverslips. Fluorescence of DAPI (4′,6-diamidino-2-phenylindole) was monitored by fluorescence microscopy (Carl Zeiss Compound Universal Microscope III RS).

[5] = test system: HaCaT cells; test: Time-lapse video-microscopy: generation time, HaCaT; format: cell-based, human
Protocol: (§9) Dynamic functional and morphological effects of compound 10 was investigated via time-lapse (1 frame/min) videomicroscopy under standard cell-breeding conditions. Low intensity, near-infrared (NIR) 940 nm illumination was used, for reduced phototoxicity. Parallel experiments were done in the same CO2 incubator, using two custom-built inverted microscope equipped with sensitive charge-coupled device (CCD) sensors. […] Image sequences were processed and quantitatively analyzed using NIH ImageJ open-source software-bundle. Cell size, cellular generation time, and cell growth of HaCaT and SCC cells were analyzed. Time-lapse video-microscopy record about the effect of 10 and DMSO control on HaCaT and SCC cell lines are available in Supplementary Materials.
For the investigation of the effect of compound 10 on cell-cycle, cellular generation times were measured from time-lapse image sequences.
In LTS video-microscopy studies, ~500.000/350.000 starting cell numbers (T-25 cell culture flask) had been used. Cell cultures had been treated with compound 10 using the IC50 concentration corresponding to the SCC VII.
TLS system architecture: Using the TLS system, various parameters had been tested. Control, DMSO control, and IC50 concentration of compound 10 compared to the above. Based on literature data, 1% (v/v) is the amount that is tolerated even without significant change in cells. […]

[6] = test system: SCC cells; test: Time-lapse video-microscopy: mother cell size, SCC; format: cell-based, mouse
Protocol: as §9
Each cell line was treated with 17.0 µM solution of compound 10, dissolved in 1% (v/v) DMSO and diluted with cell culture media before application. Then, 1% (v/v) DMSO was used as control. […]
Mother cells size measurement: • Opening the image sequence in 8-bit format. • Stack Deflicker: The Stack Deflicker calculates the average grey value for each frame and normalizes all frames so that they have the same average grey level as a specified frame of the stack. […] If a region of the stack is selected the average frame intensity will be calculated from this region. • Changing the brightness/contrast, if it is neccesary. • Subtrack background: Removes smooth continuous backgrounds from gels and other images. […] A ball of given radius is rolled over the bottom side of this surface; the hull of the volume reachable by the ball is the background to be subtracted. • Treshold: Use this tool to automatically or interactively set lower and upper threshold values, segmenting grayscale images into features of interest and background. • Divided cells were selected on the binary image sequence based on their circularity determined by area/perimeter ratio. • Bigger pre-division mother cells were separated from smaller post-division daughter cells. • Pixel size was calibrated with Burker chamber. • Area calculation from pixel^2 to µm^2.

[7] = test system: HaCaT (human keratinocyte) cell line; test: MTT cell viability assay on HaCaT cells; format: cell-based; details: Homo sapiens, HaCaT, 48 h
Protocol: as §1
The HaCaT cell line was derived from human skin, the cells spontaneously transformed in vitro during long time incubation. Cells were cultured in DMEM medium (Biocenter, Szeged, Hungary) containing 10% fetal bovine serum (FBS, Hyclon, Logan, UT) and 1% antibiotic-antimycotic mix (Penicillin–Streptomycin–Neomycin).
as §2, §3, §4, §5

[8] = test system: HaCaT cells; test: DAPI fluorescent microscopy of nucleus morphology, HaCaT; format: cell-based, human; details: 17.0 µM, 48 h, vs DMSO control
Protocol: as §6, §7, §8

| Structure (SMILES) | IC50 [1] [µM] | SI (selectivity index) ([2]; HaCaT IC50/SCC IC50) | IC50 ([2]; Mus musculus, 48 h) [µM] | mother cell size-reduction vs. DMSO ([3]; 17.0 µM) [%] | Treated Cells Size (mother cells) ([3]; 17.0 µM compound 10, n = 15) [µm^2] | nucleus morphology (DAPI), genotoxicity [4] | Treated/DMSO Difference (generation time) ([5]; 17.0 µM) [%] | Treated Cells Gen. Time ([5]; 17.0 µM compound 10, n = 15) [h] | overall size change difference between the two cell lines ([6]; HaCaT vs SCC mother cells, 17.0 µM) | Treated Cells Size (mother cells) ([6]; SCC, 17.0 µM compound 10, n = 15) [µm^2] | Treated/DMSO Difference (mother cell size) ([6]; SCC, 17.0 µM, (treated cells size/DMSO control cell size)*100-100) [%] | IC50 [7] [µM] | nucleus morphology (DAPI) [8] |
| --- | --- | --- | --- | --- | --- | --- | --- | --- | --- | --- | --- | --- | --- |
| O=c1[nH]cc(F)c(=O)[nH]1 [Compound 5-FU, 5-fluorouracil] | 60.7 ± 8.45 |  |  |  |  |  |  |  |  |  |  |  |  |
| CCCCSC[C@@H]1[C@@H](O[Si](C)(C)C(C)(C)C)[C@H](n2cc(C)c(=O)[nH]c2=O)O[C@@H]1CO[Si](C)(C)C(C)(C)C [Compound 10, 1-[3’-Deoxy-3’-C-(n-butylsulfanylmethyl)-2’,5’-di-O-(tert-butyldimethylsilyl)-β-D-xylofuranosyl]-thymine] |  | 1.64 | 17 ± 1.55 | 9 | 21.60 ± 1.93 | genotoxic effect | 20.8 | 21.67 ± 1.01 | ~ 21% | 21.44 ± 1.42 | 12.8 | 27.9 ± 1.85 | no apparent difference |
